What was measured:
Experiment in all cases: fluorescence titration (intramolecular strand displacement)
Conditions in all cases: 6 mM MgCl2; apparent; 10 mM Tris-HCl pH 7.5, 25 °C
[1] = test system: 25-7 ATP ISD Cy3–Dab (DNA, aptamer, dabcyl-5-methyl-dC at 40 (3' end)) CACCTGGGGGAGTATTGCGGAGGAAGGTTTTTCCAGGTGC
[2] = test system: 25-7 ATP ISD FAM–BHQ-1 (DNA, aptamer) CACCTGGGGGAGTATTGCGGAGGAAGGTTTTTCCAGGTG
[3] = test system: 25-7 ATP ISD FAM–Dab (DNA, aptamer, dabcyl-5-methyl-dC at 40 (3' end)) CACCTGGGGGAGTATTGCGGAGGAAGGTTTTTCCAGGTGC
[4] = test system: 25-7 ATP ISD Cy3–BHQ-1 (DNA, aptamer) CACCTGGGGGAGTATTGCGGAGGAAGGTTTTTCCAGGTG

- Kd [1]: 390 ± 83 µM
- Kd [2]: 1800 ± 1700 µM
- Kd [3]: 1300 ± 600 µM
- Kd [4]: 460 ± 65 µM
Structure (SMILES): Nc1ncnc2c1ncn2[C@@H]1O[C@H](COP(=O)(O)OP(=O)(O)OP(=O)(O)O)[C@@H](O)[C@H]1O
